Series [1] relates to Hepatitis C virus. Kind of series: Antiviral activity against HCV 1b with NS3-4A R155M mutation in human Huh7 cells after 48 hrs by replicon cell assay. In kind it is functional, organism-based, Hepacivirus hominis. Particulars: genotype 1b, Huh-7, 48 h.
Series [2] concerns Hepatitis C virus. Kind of series: Antiviral activity against wild type HCV 1b Con1 in human Huh7 cells after 48 hrs by replicon cell assay. Type of series: functional, organism-based, Hepacivirus hominis. Particulars: genotype 1b Con 1, Huh-7, 48 h. In general terms: In antiviral work, replicon cells carry a viral genome segment that copies itself.
Series [3] concerns Hepatitis C virus. Kind of series: Ratio of IC50 for HCV 1b with NS3-4A R155G mutation to IC50 for wild type HCV 1b. Type of series: functional, Hepacivirus hominis, genotype 1b.
In series [4] the test system is Hepatitis C virus. Kind of series: Ratio of IC50 for HCV 1b with NS3-4A R155T mutation to IC50 for wild type HCV 1b. Type of series: functional, Hepacivirus hominis, genotype 1b.
In series [5] the test system is Hepatitis C virus. In words: Ratio of IC50 for HCV 1b with NS3-4 R155K mutation to IC50 for wild type HCV 1b. Type of series: functional, Hepacivirus hominis, genotype 1b.
The subject of series [6] is Hepatitis C virus. Kind of series: Antiviral activity against HCV 1b Con1 with NS3-4A R155K mutation in human Huh7 cells after 48 hrs by replicon cell assay. Type of series: functional, organism-based, Hepacivirus hominis. Conditions: genotype 1b Con 1, Huh-7, 48 h.
For series [7], the system named is Hepatitis C virus. In words: (§1) Antiviral activity against HCV 1b with NS3-4A R155T mutation in human Huh7 cells after 48 hrs by replicon cell assay. In kind it is functional, organism-based, Hepacivirus hominis. Particulars: genotype 1b, Huh-7, 48 h.
Series [8] relates to Hepatitis C virus subtype 1a.
Description: Activity of wild type HCV 1a NS3-4A protease
Series [9] addresses NS3 protease (Hepacivirus C, UniProt C1KIQ2, R155I). Kind of series: Inhibition of HCV 1a NS3-4A R155I mutant protease after 60 mins. More on the design: species or system Hepatitis C virus subtype 1a.
Series [10] deals with NS3 protease (Hepacivirus C, UniProt C1KIQ2, R155T). In words: Inhibition of HCV 1a NS3-4A R155T mutant protease after 60 mins. More on the design: species or system Hepatitis C virus subtype 1a.
Series [11] deals with Hepatitis C virus. In words: Antiviral activity against HCV with NS3-4A R155T mutation in human Huh7.5 cells assessed as replication capacity by luciferase assay relative to wild type HCV. In kind it is functional, Hepacivirus hominis, Huh-7.
The test system of series [12] is Hepatitis C virus. Kind of series: Antiviral activity against HCV with NS3-4A R155K mutation in human Huh7.5 cells after assessed as replication capacity by luciferase assay relative to wild type HCV. Type of series: functional, Hepacivirus hominis, Huh-7.
The nature of series [13]: Inhibition of wild type HCV 1a NS3-4A protease after 60 mins.
Series [14] deals with Hepatitis C virus. In words: Ratio of IC50 for HCV 1b with NS3-4A R155S mutation to IC50 for wild type HCV 1b. In kind it is functional, Hepacivirus hominis, genotype 1b.
Series [15] has as its target NS3 protease (Hepacivirus C, UniProt C1KIQ2, R155S). In words: Inhibition of HCV 1a NS3-4A protease R155S mutant after 60 mins. On the set-up: species or system Hepatitis C virus subtype 1a.
The subject of series [16] is Hepatitis C virus. Kind of series: Antiviral activity against HCV 1b with NS3-4A R155I mutation in human Huh7 cells after 48 hrs by replicon cell assay. In kind it is functional, organism-based, Hepacivirus hominis. Conditions: genotype 1b, Huh-7, 48 h.
Series [17] relates to Hepatitis C virus. Kind of series: Antiviral activity against HCV with NS3-4A R155M mutation in human Huh7.5 cells assessed as replication capacity by luciferase assay relative to wild type HCV. Type of series: functional, Hepacivirus hominis, Huh-7.
Series [18] deals with Hepatitis C virus. Kind of series: Antiviral activity against HCV with NS3-4A R155S mutation in human Huh7.5 cells assessed as replication capacity by luciferase assay relative to wild type HCV. In kind it is functional, Hepacivirus hominis, Huh-7.
Series [19] relates to Hepatitis C virus. In words: Ratio of IC50 for HCV 1b with NS3-4A R155I mutation to IC50 for wild type HCV 1b. In kind it is functional, Hepacivirus hominis, genotype 1b.
The subject of series [20] is Hepatitis C virus. In words: Antiviral activity against HCV 1b with NS3-4A R155G mutation in human Huh7 cells after 48 hrs by replicon cell assay. In kind it is functional, organism-based, Hepacivirus hominis. Particulars: genotype 1b, Huh-7, 48 h.
Series [21] deals with Hepatitis C virus. In words: Antiviral activity against wild type HCV in human Huh7.5 cells assessed as replication capacity by luciferase assay. Type of series: functional, Hepacivirus hominis, Huh-7.
Series [22] deals with NS3 protease (Hepacivirus C, UniProt C1KIQ2, R155K). In words: Inhibition of HCV 1a NS3-4A R155K mutant protease after 60 mins. More on the design: species or system Hepatitis C virus subtype 1a.
Series [23] concerns Hepatitis C virus. In words: Antiviral activity against HCV with NS3-4A R155I mutation in human Huh7.5 cells assessed as replication capacity by luciferase assay relative to wild type HCV. Type of series: functional, Hepacivirus hominis, Huh-7.
Series [24] deals with Hepatitis C virus. Kind of series: Antiviral activity against HCV with NS3-4A R155G mutation in human Huh7.5 cells assessed as replication capacity by luciferase assay relative to wild type HCV. In kind it is functional, Hepacivirus hominis, Huh-7.
Series [25] concerns Hepatitis C virus. In words: Ratio of IC50 for HCV 1b with NS3-4A R155M mutation to IC50 for wild type HCV 1b. Type of series: functional, Hepacivirus hominis, genotype 1b.
Series [26] has as its system Hepatitis C virus. The series is described as §1. In kind it is functional, organism-based, Hepacivirus hominis. Particulars: genotype 1b, Huh-7, 48 h. This is another data set of the same source.
Substrate in series [27]: CCC[C@H](NC(=O)[C@@H]1[C@H]2CCC[C@H]2CN1C(=O)[C@@H](NC(=O)[C@@H](NC(=O)c1cnccn1)C1CCCCC1)C(C)(C)C)C(=O)C(=O)NC1CC1
Particulars: Hepatitis C virus subtype 1a.

Substrate in series [28]: CCC[C@H](NC(=O)[C@@H]1[C@H]2CCC[C@H]2CN1C(=O)[C@@H](NC(=O)[C@@H](NC(=O)c1cnccn1)C1CCCCC1)C(C)(C)C)C(=O)C(=O)NC1CC1
Particulars: Hepatitis C virus subtype 1a. The source holds these as a separate data set.

Substrate in series [29]: CCC[C@H](NC(=O)[C@@H]1[C@H]2CCC[C@H]2CN1C(=O)[C@@H](NC(=O)[C@@H](NC(=O)c1cnccn1)C1CCCCC1)C(C)(C)C)C(=O)C(=O)NC1CC1
Particulars: Hepatitis C virus subtype 1a. The source holds these as a separate data set.

Chain of NS3 protease (Hepacivirus C, UniProt C1KIQ2, R155I) (C1KIQ2 entry or part of it R155I): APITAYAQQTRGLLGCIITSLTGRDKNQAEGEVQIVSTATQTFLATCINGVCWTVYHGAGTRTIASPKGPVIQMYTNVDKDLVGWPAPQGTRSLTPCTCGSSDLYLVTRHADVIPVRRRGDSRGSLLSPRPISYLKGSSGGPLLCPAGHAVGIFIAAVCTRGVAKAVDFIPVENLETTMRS

Usually IC50 stands for the concentration at which inhibition is half-maximal. Low values mean greater potency in that assay, high ones weaker potency in that assay. Take `NC(=O)c1ncn([C@@H]2O[C@H](CO)[C@@H](O)[C@H]2O)n1` [RIBAVIRIN]: the IC50 with Hepatitis C virus [1] came out at 39 µM; in the series on Hepatitis C virus [2], 58 µM; in the series with Hepatitis C virus [6] it was 37 µM; in the series with Hepatitis C virus [7] it was 32 µM. The “fold change (FC)” value with Hepatitis C virus [3] was determined as 0.7; with Hepatitis C virus [4], 0.6; in the series on Hepatitis C virus [5], 0.6.

One may read the Km as the concentration of substrate that gives half-maximal velocity. As to `CCC[C@H](NC(=O)[C@@H]1[C@H]2CCC[C@H]2CN1C(=O)[C@@H](NC(=O)[C@@H](NC(=O)c1cnccn1)C1CCCCC1)C(C)(C)C)C(=O)C(=O)NC1CC1` [TELAPREVIR], the Km in series [8] is 53 µM. For the same molecule, the IC50 on NS3 protease [9] was 880 nM; on NS3 protease [10] it was 490 nM; in the series on Hepatitis C virus [1], 2.7 µM; in [13] it was 50 nM; against NS3 protease [15] it was 1150 nM; in the series with Hepatitis C virus [2], 0.49 µM. Moreover, the IC50 is 11.7 µM with Hepatitis C virus [16]; 3.6 µM in the series with Hepatitis C virus [20]; 510 nM on NS3 protease [22]; 3.6 µM in the series with Hepatitis C virus [6]; 9.6 µM with Hepatitis C virus [7]; 2000 nM in the series on Hepatitis C virus [26]. Further, the Activity was 41% in the series with Hepatitis C virus [11]; 80% with Hepatitis C virus [12]; 18% in the series on Hepatitis C virus [17]; 45% in the series on Hepatitis C virus [18]; 100% with Hepatitis C virus [21]; 19% with Hepatitis C virus [23]. For the same molecule, in the series with Hepatitis C virus [24], the Activity turned out to be 10%. Also, the “fold change (FC)” value in the series with Hepatitis C virus [14] is listed as 4.1; in the series with Hepatitis C virus [3], 7.4; with Hepatitis C virus [19] it was 24; in the series with Hepatitis C virus [4], 19.8; in the series with Hepatitis C virus [5] it was 7.4; in the series on Hepatitis C virus [25], 5.5.

B1: NS3 protease (Hepacivirus C), C1KIQ2 R155K (protein)
chain: APITAYAQQTRGLLGCIITSLTGRDKNQAEGEVQIVSTATQTFLATCINGVCWTVYHGAGTRTIASPKGPVIQMYTNVDKDLVGWPAPQGTRSLTPCTCGSSDLYLVTRHADVIPVRRRGDSRGSLLSPRPISYLKGSSGGPLLCPAGHAVGIFKAAVCTRGVAKAVDFIPVENLETTMRS
In the case of B1, the Km in series [27] turned out to be 168 µM.

B2: NS3 protease (Hepacivirus C), C1KIQ2 R155T (protein)
chain: APITAYAQQTRGLLGCIITSLTGRDKNQAEGEVQIVSTATQTFLATCINGVCWTVYHGAGTRTIASPKGPVIQMYTNVDKDLVGWPAPQGTRSLTPCTCGSSDLYLVTRHADVIPVRRRGDSRGSLLSPRPISYLKGSSGGPLLCPAGHAVGIFTAAVCTRGVAKAVDFIPVENLETTMRS
As for B2, in [28], the Michaelis-Menten constant (Km) stood at 68 µM.

B3: NS3 protease (Hepacivirus C), C1KIQ2 R155S (protein)
chain: APITAYAQQTRGLLGCIITSLTGRDKNQAEGEVQIVSTATQTFLATCINGVCWTVYHGAGTRTIASPKGPVIQMYTNVDKDLVGWPAPQGTRSLTPCTCGSSDLYLVTRHADVIPVRRRGDSRGSLLSPRPISYLKGSSGGPLLCPAGHAVGIFSAAVCTRGVAKAVDFIPVENLETTMRS
Regarding B3, the Km in [29] was 552 µM.
